# Calls of active or inactive are those of the source. No cut-off for these calls is given here. Positions of bridges follow the written chain, without caps; N, C: chain ends. Non-standard residues stand in square brackets, D forms with d. Residues, ends and D or L forms follow the SMILES beside them. NMeA = CN[C@@H](C)C(=O)O; Mpa = O=C(O)CCS; Sar = CNCC(=O)O
# Tests used:
# Rattus norvegicus [1] = species: Rattus norvegicus; test: Tested for antidiuretic activity in rat; format: functional, Urine; parameters: unit not given here
# Rattus norvegicus [2] = species: Rattus norvegicus; test: The compound was tested for milk ejection activity in rat; format: functional; parameters: unit not given here
# Rattus norvegicus [3] = species: Rattus norvegicus; test: Uterotonic activity in vitro in isolated rat uterus in absence of magnesium; format: functional; parameters: unit not given here
# Rattus norvegicus [4] = species: Rattus norvegicus; test: Uterotonic activity in vitro in isolated rat uterus in presence of magnesium; format: functional
# [5] = Tested for the ratio of uterotonic potency to antidiuretic potency(O/A); format: functional, Urine
# [6] = Tested for the ratio of uterotonic potency to pressor potency(O/P); format: functional
# Rattus norvegicus [7] = species: Rattus norvegicus; test: Tested for vasopressor activity in rat; format: functional; parameters: unit not given here
# [8] = Tested for the ratio of antidiuretic potency to uterotonic potency(A/O); format: functional, Urine
# [9] = Tested for the ratio of antidiuretic potency to uterotonic potency(A/P); format: functional
# Rattus norvegicus [10] = species: Rattus norvegicus; test: Tested for vasopressor activity in rat; N-None; format: functional, organism-based
# Rattus norvegicus [11] = species: Rattus norvegicus; test: Tested for vasopressor activity in rat;N-None; format: functional, organism-based
Structure (SMILES),Activity (Rattus norvegicus [1]),Activity (Rattus norvegicus [2]),Activity (Rattus norvegicus [3]),Activity (Rattus norvegicus [4]),Activity (Rattus norvegicus [7]),also measured
CC[C@H](C)[C@@H]1NC(=O)[C@H](Cc2ccc(O)cc2)NC(=O)[C@@H](N)CSSC[C@@H](C(=O)N(C)CC(=O)N[C@@H](CC(C)C)C(=O)NCC(N)=O)NC(=O)[C@H](CC(N)=O)NC(=O)[C@H](CCC(N)=O)NC1=O (H-CYIQNC[Sar]LG-NH2; disulfide 1-6),0.18,564,459,609 IU/mg,,Ratio [5]: 2550
CC[C@H](C)[C@@H]1NC(=O)[C@H](Cc2ccc(O)cc2)NC(=O)CCSSC[C@@H](C(=O)N2CCC[C@H]2C(=O)N[C@@H](CC(C)C)C(=O)NCC(N)=O)NC(=O)[C@H](CC(N)=O)NC(=O)[C@H](CCC(N)=O)NC1=O [DEMOXYTOCIN],,,,,,Ratio [5]: 130
NC(=O)CC[C@@H]1NC(=O)[C@H](Cc2ccccc2)NC(=O)[C@H](Cc2ccc(O)cc2)NC(=O)[C@@H](N)CSSC[C@@H](C(=O)NCC(=O)N[C@@H](CCCN=C(N)N)C(=O)NCC(N)=O)NC(=O)[C@H](CC(N)=O)NC1=O (H-CYFQNCGRG-NH2; disulfide 1-6),,0.1,,0.01 IU/mg,,
CC[C@H](C)[C@@H]1NC(=O)[C@H](Cc2ccc(O)cc2)NC(=O)CCSSC[C@@H](C(=O)N(C)CC(=O)N[C@@H](CC(C)C)C(=O)NCC(N)=O)NC(=O)[C@H](CC(N)=O)NC(=O)[C@H](CCC(N)=O)NC1=O,,498,745,1350 IU/mg,,
CC[C@H](C)[C@@H]1NC(=O)[C@@H](Cc2ccc(O)cc2)NC(=O)[C@H](N)CSSC[C@@H](C(=O)NCC(=O)N[C@@H](CC(C)C)C(=O)NCC(N)=O)NC(=O)[C@H](CC(N)=O)NC(=O)[C@@H](CCC(N)=O)NC1=O,,,,,,Ratio [6]: 9300
C[C@@H](C(=O)N[C@@H](CCCN=C(N)N)C(=O)NCC(N)=O)N(C)C(=O)[C@@H]1CSSC[C@H](N)C(=O)N[C@@H](Cc2ccc(O)cc2)C(=O)N[C@@H](Cc2ccccc2)C(=O)N[C@@H](CCC(N)=O)C(=O)N[C@@H](CC(N)=O)C(=O)N1 (H-CYFQNC[NMeA]RG-NH2; disulfide 1-6),35,2.8,343,10.6 IU/mg,4.1,Ratio [8]: 122; Ratio [9]: 32
N=C(N)NCCC[C@H](NC(=O)[C@@H]1CCCN1C(=O)[C@@H]1CSSCCC(=O)N[C@@H](Cc2ccc(O)cc2)C(=O)N[C@@H](Cc2ccccc2)C(=O)N[C@@H](CCC(N)=O)C(=O)N[C@@H](CC(N)=O)C(=O)N1)C(=O)NCC(N)=O [DESMOPRESSIN],,,,346 IU/mg,,Ratio [8]: 60; Ratio [9]: 5
CC[C@H](C)[C@@H]1NC(=O)[C@H](Cc2ccc(O)cc2)NC(=O)CCSSC[C@@H](C(=O)N(C)[C@@H](C)C(=O)N[C@@H](CC(C)C)C(=O)NCC(N)=O)NC(=O)[C@H](CC(N)=O)NC(=O)[C@H](CCC(N)=O)NC1=O ([Mpa]YIQNC[NMeA]LG-NH2; disulfide 1-6),,157,98,274 IU/mg,,
CC[C@H](C)[C@@H]1NC(=O)[C@H](Cc2ccc(O)cc2)NC(=O)[C@@H](N)CSSC[C@@H](C(=O)N(C)[C@@H](C)C(=O)N[C@@H](CC(C)C)C(=O)NCC(N)=O)NC(=O)[C@H](CC(N)=O)NC(=O)[C@H](CCC(N)=O)NC1=O,0.12,402,62,184 IU/mg,,Ratio [5]: 620
CC[C@H](C)[C@@H]1NC(=O)[C@@H](Cc2ccc(O)cc2)NC(=O)CCSSC[C@@H](C(=O)N(C)CC(=O)N[C@@H](CC(C)C)C(=O)NCC(N)=O)NC(=O)[C@H](CC(N)=O)NC(=O)[C@@H](CCC(N)=O)NC1=O,,,,,,Activity (Rattus norvegicus [10]): inactive
CC[C@H](C)[C@@H]1NC(=O)[C@H](Cc2ccc(O)cc2)NC(=O)CCSSC[C@H](C(=O)N2CCC[C@H]2C(=O)N[C@@H](CC(C)C)C(=O)NCC(N)=O)NC(=O)[C@H](CC(N)=O)NC(=O)[C@H](CCC(N)=O)NC1=O,,,,,,Ratio [6]: 120
CC[C@H](C)[C@@H]1NC(=O)[C@H](Cc2ccc(O)cc2)NC(=O)[C@@H](N)CSSC[C@@H](C(=O)NCC(=O)N[C@@H](CC(C)C)C(=O)NCC(N)=O)NC(=O)[C@H](CC(N)=O)NC(=O)[C@H](CCC(N)=O)NC1=O,0.0056,392,93,,0.01,Ratio [5]: 16600
CN(CC(=O)N[C@@H](CCCN=C(N)N)C(=O)NCC(N)=O)C(=O)[C@@H]1CSSC[C@H](N)C(=O)N[C@@H](Cc2ccc(O)cc2)C(=O)N[C@@H](Cc2ccccc2)C(=O)N[C@@H](CCC(N)=O)C(=O)N[C@@H](CC(N)=O)C(=O)N1 (H-CYFQNC[Sar]RG-NH2; disulfide 1-6),110,9.3,188,3.6 IU/mg,36,Ratio [8]: 20; Ratio [9]: 52
CC[C@H](C)[C@@H]1NC(=O)[C@@H](Cc2ccc(O)cc2)NC(=O)[C@H](N)CSSC[C@@H](C(=O)N[C@@H](C)C(=O)N[C@@H](CC(C)C)C(=O)NCC(N)=O)NC(=O)[C@H](CC(N)=O)NC(=O)[C@@H](CCC(N)=O)NC1=O,,,,,,Ratio [6]: 55
CC[C@H](C)[C@@H]1NC(=O)[C@H](Cc2ccc(O)cc2)NC(=O)[C@@H](N)CSSC[C@@H](C(=O)N[C@@H](C)C(=O)N[C@@H](CC(C)C)C(=O)NCC(N)=O)NC(=O)[C@H](CC(N)=O)NC(=O)[C@H](CCC(N)=O)NC1=O,0.08,,22,,0.4,Ratio [5]: 275
CN(CC(=O)N[C@@H](CCCN=C(N)N)C(=O)NCC(N)=O)C(=O)[C@@H]1CSSCCC(=O)N[C@@H](Cc2ccc(O)cc2)C(=O)N[C@@H](Cc2ccccc2)C(=O)N[C@@H](CCC(N)=O)C(=O)N[C@@H](CC(N)=O)C(=O)N1 ([Mpa]YFQNC[Sar]RG-NH2; disulfide 1-6),193,38.2,580,0.84 IU/mg,49,Ratio [8]: 15; Ratio [9]: 690
C[C@@H](C(=O)N[C@@H](CCCN=C(N)N)C(=O)NCC(N)=O)N(C)C(=O)[C@@H]1CSSCCC(=O)N[C@@H](Cc2ccc(O)cc2)C(=O)N[C@@H](Cc2ccccc2)C(=O)N[C@@H](CCC(N)=O)C(=O)N[C@@H](CC(N)=O)C(=O)N1 ([Mpa]YFQNC[NMeA]RG-NH2; disulfide 1-6),35,1.7,113,1.3 IU/mg,8,Ratio [8]: 78; Ratio [9]: 102
CC[C@H](C)[C@@H]1NC(=O)[C@H](Cc2ccc(O)cc2)NC(=O)[C@@H](N)CSSC[C@@H](C(=O)N2CCC[C@H]2C(=O)N[C@@H](CC(C)C)C(=O)NCC(N)=O)NC(=O)[C@H](CC(N)=O)NC(=O)[C@H](CCC(N)=O)NC1=O [OXYTOCIN],,,,486 IU/mg,,Ratio [6]: 120
CC[C@H](C)[C@@H]1NC(=O)[C@@H](Cc2ccc(O)cc2)NC(=O)[C@H](N)CSSC[C@@H](C(=O)N(C)[C@@H](C)C(=O)N[C@@H](CC(C)C)C(=O)NCC(N)=O)NC(=O)[C@H](CC(N)=O)NC(=O)[C@@H](CCC(N)=O)NC1=O,,,,,,Activity (Rattus norvegicus [11]): inactive

# From ChEMBL document CHEMBL1122363, “Synthesis and some pharmacological properties of oxytocin and vasopressin analogues with sarcosine or N-methyl-L-alanine in position 7” (1983)
